{"source": "patent US20100222421A1", "about": "“Usage of Baicalein in the Preparation of a Pharmaceutical Composition for the Treatment of Traumatic Brain Injury” (National Defense Medical Center, priority 2009, published 2010)", "key": {"[1]": {"system": "degenerating neurons (FJB-positive cells) in cortical contusion margin", "assay": "Neuronal degeneration, FluoroJade B (FJB) staining", "type": "in vivo, rat", "conditions": "single-dose 30 mg kg^-1 i.p., 1 day post-injury, P<0.05", "method": "A previously described CCI injury procedure was utilized (Chen et al., 2003). Male Sprague-Dawley rats, which have body weight of 250-300 g, were anaesthetized with sodium pentobarbital (i.p.; 50 mgkg^−1; Rhone Merieux, Harlow, UK) and placed in a stereotaxic frame. A 5-mm craniotomy was performed over the left parietal cortex, centered on the coronal suture and 3 mm lateral to the sagittal suture. Considerable care was taken to avoid injury to the underlying dura. Injury was made using a pneumatic piston with a rounded metal tip (2.5 mm diameter) that was angled 22.5° C. to the vertical so that the tip was perpendicular with the brain surface at the centre of the craniotomy. A velocity of 4 ms^−1 and a deformation depth 2 mm below the dura were used. The bone flap was immediately replaced and sealed, and the scalp was closed with sutures. Body temperature was monitored throughout the surgery by a rectal probe; temperature was maintained at 37.0±0.5° C. using a heated pad. […] Testing after injury was as follows: (1) real-time quantitative RT-PCR analysis for TNF-α, IL-1β and IL-6 mRNA expression at 6 h post-injury (n=7 for each group); (2) FluoroJade B (FJB) staining, TNF-α, IL-1β and IL-6 immunohistochemistry, as well as ELISA at 24 h post-injury to assess degenerative neurons and to determine cytokine expression (n=7 for each group). […]"}, "[2]": {"assay": "Body weight after CCI injury", "type": "in vivo, rat", "conditions": "CCI-injured rats, 30 mg kg^-1 i.p.; P=0.8", "method": "A previously described CCI injury procedure was utilized (Chen et al., 2003). Male Sprague-Dawley rats, which have body weight of 250-300 g, were anaesthetized with sodium pentobarbital (i.p.; 50 mgkg^−1; Rhone Merieux, Harlow, UK) and placed in a stereotaxic frame. A 5-mm craniotomy was performed over the left parietal cortex, centered on the coronal suture and 3 mm lateral to the sagittal suture. Considerable care was taken to avoid injury to the underlying dura. Injury was made using a pneumatic piston with a rounded metal tip (2.5 mm diameter) that was angled 22.5° C. to the vertical so that the tip was perpendicular with the brain surface at the centre of the craniotomy. A velocity of 4 ms^−1 and a deformation depth 2 mm below the dura were used. The bone flap was immediately replaced and sealed, and the scalp was closed with sutures. Body temperature was monitored throughout the surgery by a rectal probe; temperature was maintained at 37.0±0.5° C. using a heated pad. Rats were placed in a heated cage to maintain body temperature, while recovering from anaesthesia.\nBaicalein (30 mg kg^−1) dissolved in 10% dimethyl sulphoxide (0.25-0.3 mL) or a corresponding volume of vehicle (10% dimethyl sulphoxide) was administered i.p. immediately following injury or daily for 4 days (immediately, 25, 49 and 73 h) after injury. […]"}}, "data": [{"smiles": "O=c1cc(-c2ccccc2)oc2cc(O)c(O)c(O)c12", "note": "[baicalein]", "values": [{"measurement": "reduction of the number of FJB-positive cells versus vehicle", "setting": "[1]", "result": 31, "unit": "%"}, {"measurement": "body weight, baicalein versus vehicle", "setting": "[2]", "result": "no significant difference"}]}]}
